From patent US20100324285A1, “ANTIINFLAMMATORY AGENT COMPRISING 2-AMINOPHENOL OR DERIVATIVE THEREOF AS ACTIVE INGREDIENT” (priority 2006, published 2010)
pIC50: −log10 of the molar value.

Assays:
[1] = tested on: Mouse melanoma cell line B16; assay: Living cell rate of B16 cells; settings: 5 days, versus control
Description: As control, a system with no test sample was provided. […] The amount of protein was measured by conventional Bradfordmethod and the amount of melanin per 1 mg of protein was calculated. The amount of melanin (%) was calculated according to Formula 4, and the living cell rate (%) was calculated according to Formula 5.

[2] = tested on: Mouse melanoma cell line B16; assay: Melanin synthesis in B16 cells; type: cell-based; settings: 5 days, per mg protein versus control
[3] = tested on: NHDF, normal fibroblast from human fetus; assay: Collagen production by NHDF, Sircol Collagen Assay; type: cell-based; settings: 6 days; for Collagen production (μg/well), AA-2G addition: 50 μM AA-2G; for Collagen production (μg/well), AA-2G free: no AA-2G
Description: NDHF cells (commercialized by Kurabo Industries Ltd. Osaka, Japan, catalog No. “KF-4001”) were suspended in D-MEM supplemented with 10 (v/v) % FCS to give a concentration of 5×10^5 cells/ml, and the suspension was sown in 96-well microplate by 50 μl per well. […] After cultured at 37° C. for a day, the supernatant was removed and any one of the samples and D-MEM medium supplemented with 10 (v/v) % FCS containing 100 μM AA-2G (a final concentration of 50 μM) or D-MEM medium supplemented with 10 (v/v) % FCS not containing AA-2G were added by 100 μl per well, and cultured at 37° C. for 3 days in 5 (v/v) % CO2 atmosphere. […] After the culture supernatant was removed, 1 M acetate solution containing 1 mg/ml of pepsin (commercialized by SIGMA, Inc.) was added by 50 μl per well and the plate was shaken at room temperature for 4 hours with a plate mixer for pepsin digestion. The digest was collected in a 1.5 ml-tube by pipetting, admixed with 200 μl per tube of Dye Reagent of Sircol Collagen Assay Kit (commercialized by Biocolor Ltd.), and allowed to react at room temperature for 30 minutes by inversely mixing. The supernatant of the reaction mixture was completely removed bycentrifugation (4° C., 15,000 rpm, 10 minutes), […] dissolved in 50 μl of 1 N NaOH, the resulting supernatant was measured for its absorbance at 560 nm to 650 nm. […] According to the standard curve, the amount of collagen in the pepsin digest of the cells was calculated.

COX-2 = target: T1, COX-2 (Homo sapiens, UniProt P35354); assay: COX Inhibitor Screening Assay Kit, COX-2; type: biochemical
T1 sequence (P35354 18-604): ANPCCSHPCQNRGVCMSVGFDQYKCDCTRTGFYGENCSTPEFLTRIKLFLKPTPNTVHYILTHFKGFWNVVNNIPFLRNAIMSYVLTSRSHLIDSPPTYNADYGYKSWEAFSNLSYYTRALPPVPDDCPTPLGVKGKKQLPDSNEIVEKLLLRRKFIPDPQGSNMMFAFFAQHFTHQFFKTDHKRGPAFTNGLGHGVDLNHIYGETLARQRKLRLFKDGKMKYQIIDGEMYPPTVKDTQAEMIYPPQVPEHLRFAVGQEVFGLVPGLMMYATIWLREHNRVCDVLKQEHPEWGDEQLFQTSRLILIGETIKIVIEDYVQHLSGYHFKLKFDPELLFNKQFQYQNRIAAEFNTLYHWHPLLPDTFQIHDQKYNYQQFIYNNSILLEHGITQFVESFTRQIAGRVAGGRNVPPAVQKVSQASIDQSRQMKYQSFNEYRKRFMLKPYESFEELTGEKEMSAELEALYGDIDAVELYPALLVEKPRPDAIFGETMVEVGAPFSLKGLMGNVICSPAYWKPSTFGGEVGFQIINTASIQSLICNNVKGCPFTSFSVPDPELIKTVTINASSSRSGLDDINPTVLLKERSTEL
Source text: Fifty percent inhibitory concentration (IC50) means the concentration of test sample necessary for inhibiting PGE2 synthesis by 50% compared to non-inhibitory control sample. It can be also determined by measuring the amount of PGE2 produced by adding test samples to cells having cyclooxygenase activity. COX-1/COX-2 ratio means the ratio of […], and the higher the ratio is, the more specific to COX-2 the agent is.
To verify the results of Experiment 2, it was investigated that whether the activity of COXs, essential enzymes for PGE2 synthesis system, can be inhibited. […] An experimental system without the test samples was set as control. The residual activity of COX-1 or COX-2 was determined as relative activity versus control.

RAW264.7 cells = assay: NO production by macrophage RAW264.7, Griess method; type: cell-based, mouse; settings: LPS + IFN-γ, 2 days, relative level versus control
Source text: As macrophage cells, RAW264.7 cell strain from mouse or macrophage cells obtained from laboratory animals such as mouse can be used. The amount of produced NO can be measured by conventional Griess method. […] RAW264.7 cells, a murine macrophage cell strain, were suspended in PRMI1640 medium supplied with 10% (v/v) fetal calf serum (hereinafter abbreviated as “FCS”) to give a cell suspension with a cell concentration of 1×10^6 cells/ml. […] The experimental system without the test samples described above was set as control. […] NO production, PGE2 production and macrophage growth are indicated as relative levels versus controls.

[4] = read-out: residual activity of COX-2

Structure (SMILES): Nc1cc2nc3ccccc3oc-2cc1=O [2-Aminophenoxazine-3-one, 2-aminophenoxazine-3-one]
- Living cell rate (%) ([1]; 0.5 μM): 107%
- Living cell rate (%) ([1]; 1 μM): 95%
- Living cell rate (%) ([1]; 2 μM): 77%
- Amount of melanin (%) ([2]; 0.5 μM): 74%
- Amount of melanin (%) ([2]; 1 μM): 69%
- Amount of melanin (%) ([2]; 2 μM): 61%
- Collagen production (μg/well), AA-2G addition ([3]; QA 0.125 μM): 1.32 ± 0.45 μg/well
- Collagen production (μg/well), AA-2G free ([3]; QA 0.125 μM): 0.66 ± 0.05 μg/well
- Collagen production (μg/well), AA-2G addition ([3]; QA 0.25 μM): 1.64 ± 0.21 μg/well
- Collagen production (μg/well), AA-2G free ([3]; QA 0.25 μM): 0.64 ± 0.06 μg/well
- Collagen production (μg/well), AA-2G addition ([3]; QA 0.5 μM): 1.57 ± 0.18 μg/well
- Collagen production (μg/well), AA-2G free ([3]; QA 0.5 μM): 0.63 ± 0.07 μg/well
- Collagen production (μg/well), AA-2G addition ([3]; QA 1.0 μM): 1.03 ± 0.22 μg/well
- Collagen production (μg/well), AA-2G free ([3]; QA 1.0 μM): 0.71 ± 0.10 μg/well
- Collagen production (μg/well), AA-2G addition ([3]; QA 2.0 μM): 0.58 ± 0.06 μg/well
- Collagen production (μg/well), AA-2G free ([3]; QA 2.0 μM): 0.70 ± 0.16 μg/well
- pIC50 (COX-2; PGE2 from arachidonic acid, read-out: IC50 COX-2): 5.32
- COX-1/COX-2 ratio (COX-2; ratio of IC50 values of Table 2): about 1.3
- remaining activity at 1.9 µM (COX-2; [4]): 95%
- remaining activity at 3.8 µM (COX-2; [4]): 37%
- remaining activity at 7.6 µM (COX-2; [4]): 29%
- NO production (%) (RAW264.7 cells; 0.16 μM): 85%
- NO production (%) (RAW264.7 cells; 0.31 μM): 78%
- NO production (%) (RAW264.7 cells; 0.63 μM): 70%
- NO production (%) (RAW264.7 cells; 1.3 μM): 54%
- NO production (%) (RAW264.7 cells; 2.5 μM): 32%
- NO production (%) (RAW264.7 cells; 5.0 μM): 19%
- NO production (%) (RAW264.7 cells; 10 μM): 14%
